Measurements taken from paper PMC4138991, “Building a Better Dynasore: The Dyngo Compounds Potently Inhibit Dynamin and Endocytosis” (Traffic (Copenhagen, Denmark), 2013).
Entries after “also recorded” stand apart in the source; their conditions may differ. Read-outs that look alike come from different tables or passages of the source.

Tests used:
[1] = MTT growth inhibition assay; format: cell-based; details: human
Procedure: A 30 mM stock solution of each test compound was prepared in dimethylsulphoxide (DMSO) and stored at −20 °C. All cell lines were cultured at 37 °C, under 5% CO2 in air and were maintained in Dulbecco’s modified Eagle’s medium (Trace Biosciences, Australia) supplemented with 10% foetal bovine serum, 10 mM sodium bicarbonate penicillin (100 IU/mL), streptomycin (100 µg/mL), and glutamine (4 mM). Cells in logarithmic growth were transferred to 96-well plates. Cytotoxicity was determined by plating cells in duplicate in […] medium at a density of 2,500–4,000 cells/well. On day 0, (24 h after plating) when the cells were in logarithmic growth, 100 μL medium with or without the test agent was added to each well. After 72 h drug exposure, growth inhibitory effects were evaluated using the MTT (3-[4,5-dimethyltiazol-2-yl]-2,5-diphenyl-tetrazolium bromide) assay and absorbance read at 540 nm. A dose response curve was produced allowing for the calculation of a GI50 value. This value is the drug concentration at which cell growth is inhibited by 50% based on the difference between the optical density values on day 0 and those at the end of drug exposure.

[2] = system: Tfn-A594 uptake in U2OS cells; assay: Automated quantitative CME assay: Tfn-A594 uptake; format: cell-based; details: for recovery of normal non-neuronal CME after wash out: 10 μM for 30 min; for fold less potent CME inhibition in presence of serum protein: 5 or 10% FBS or 1% BSA versus none; for IC50: Homo sapiens
Procedure: To determine whether the Dyngo compounds are widespread cell‐permeable and endocytosis inhibitors, CME of fluorescent Tfn was compared in an automated quantitative endocytosis assay in U2OS cells. The assay consisted of over 1200 cells under serum‐free conditions; after preincubation with each analog for 30 min the uptake of fluorescent Tfn was measured. We refer to this endocytosis as non‐neuronal CME to distinguish it from CME of synaptic vesicles in presynaptic terminals of neurons, which is referred to as synaptic vesicle endocytosis (SVE). In these cells, Tfn uptake is presumed to be mediated by dynamin II, because this is the only isoform of dynamin that they express, as determined by western blot (Figure S6). […] There was no apparent correlation between in vitro and in‐cell activity, with potent dynamin‐active compounds like 1a and 14a having no effect on non‐neuronal CME (Table 1). This might be explained by low membrane permeability of these analogs, their cellular metabolism or rapid cellular efflux mechanisms.
Quantitative analysis of the inhibition of Alexa 594‐Tfn endocytosis in U2OS cells was performed on large numbers of serum‐starved cells as described 10. Synaptic vesicle recycling in cultured CGNs was monitored using FM1‐43 as described 57 (see Supporting Information). Dynamin‐independent endocytosis was measured using internalization of CT in NIH3T3 cells (using Tfn as a control) as described previously 58 with minor changes (see Supporting Information). The average number of cells for each data point was ˜1200. IC50 values were calculated using GraphPad Prism 5 and data were expressed as mean ± 95% confidence interval (CI) for three wells and ˜1200 cells.

HeLa cells = assay: LDH toxicity assay; format: cell-based; details: 8-h exposure, with or without serum
Procedure: Cytotoxicity was assayed by determination of lactate dehydrogenase (LDH) activity. HeLa cells were seeded in 96 well plates as described previously (11) Asynchronously growing cells were treated in the presence or absence of MiTMAB or the indicated Dyngo compound in the presence and absence of FCS at the indicated concentration for 8h. The supernatant (50 μL) was added to 100 μL of LDH assay reagent (Sigma- Aldrich) and the reaction was allowed to develop for 20 min. Absorbance was measured at 490 nm and 690 nm (plate background absorbance). Values were normalized to drug/media background value and toxicity was calculated as a % of a 100% lysed cell control.

rat brain synaptosomes = assay: Synaptic vesicle endocytosis: FM4-64 uptake in synaptosomes; details: read-out: SVE IC50
[3] = system: CT-555 uptake in NIH3T3 cells; format: cell-based; details: NIH3T3, 20, 50 or 80 μM
[4] = MCF-7 breast cancer cells, MCF-7, MTT
[5] = then wash out up to 1 h / 60 min
[6] = Tfn-A594 uptake, U2OS, 30-min preincubation, serum-free, read-out: CME IC50
[7] = U2OS, 1 h incubation, 0.1% BSA, read-out: CME IC50, 0.1% BSA
[8] = U2OS, 1 h incubation, 1% BSA, read-out: CME IC50, 1% BSA
[9] = U2OS, 1 h incubation, 1% FBS, read-out: CME IC50, 1% FBS
[10] = U2OS, 1 h incubation, 5% FBS, read-out: CME IC50, 5% FBS
[11] = U2OS, 1 h incubation, 10% FBS, read-out: CME IC50, 10% FBS
[12] = U2OS, 1 h incubation, absence of FBS or BSA, read-out: CME IC50, 1 h

SMILES | GI50 at 72 h ([1]; A431 skin cancer cells) [µM] | GI50 at 72 h ([1]; BE2-C neuroblastoma cells) [µM] | GI50 at 72 h ([1]; DU145 prostate cancer cells) [µM] | GI50 at 72 h ([1]; H460 lung cancer cells) [µM] | GI50 at 72 h ([1]; HT29 colon cancer cells) [µM] | GI50 at 72 h [1, 4] [µM] | GI50 at 72 h ([1]; SJ-G2 glioblastoma cells) [µM] | GI50 at 72 h ([1]; SW480 colon cancer cells) [µM] | GI50 at 72 h ([1]; ovarian cancer cells) [µM] | recovery of normal non-neuronal CME after wash out [2, 5] | IC50 [2, 6] [µM] | IC50 [2, 7] [µM] | IC50 [2, 8] [µM] | IC50 [2, 9] [µM] | IC50 [2, 10] [µM] | IC50 [2, 11] [µM] | IC50 [2, 12] [µM] | generalized cytotoxicity by LDH activity (HeLa cells) | IC50 (rat brain synaptosomes) [µM] | effect on dynamin-independent endocytosis of cholera toxin [3] | also measured
O=C(N/N=C/c1cc(O)c(O)cc1O)c1cc2ccccc2cc1O [4a, (E)-3-Hydroxy-N'-(2,4,5-trihydroxybenzylidene) -2-naphthohydrazide] | > 50 | > 50 | > 50 | > 50 | > 50 | > 50 | > 50 | > 50 | > 50 | over 80% | 5.7 ± 1 | 44 | 83 ± 12 | 23.7 ± 3.2 | 102 | 115 ± 7.5 | 6.3 ± 3.6 | did not exhibit generalized cytotoxicity | 26.8 | no effect; also recorded: much less effect; also recorded: does not block | recovery of normal non-neuronal CME after wash out ([2]; then 10 min after removal): 70%; fold less potent CME inhibition in presence of serum protein [2]: at least 20 fold; preincubation time required for complete abolition of Tfn uptake ([2]; U2OS, 10 μM): 30 min; shortest preincubation at which inhibition of CME was observed ([2]; U2OS, 10 μM): 5 min
O=C(N/N=C/c1cccc(O)c1O)c1cc2ccccc2cc1O [6a, (E)-N'-(2,3-Dihydroxybenzylidene)-3-hydroxy-2-naphthohydrazide] | > 50 | > 50 | > 50 | > 50 | > 50 | > 50 | > 50 | > 50 | > 50 | 70% | 5.8 ± 0.8 | 46 | 281 | 16.5 | 78 ± 7 | 108 ± 15 | 3.3 ± 0.6 | did not exhibit generalized cytotoxicity | 70.1 | no effect | fold less potent CME inhibition in presence of serum protein [2]: at least 20 fold; times more potent than dynasore in CME assay ([2]; same conditions, U2OS Tfn uptake): six times more potent
O=C(N/N=C/c1ccc(O)c(O)c1)c1cc2ccccc2cc1O [Dynasore, (E)-N'-(3,4-Dihydroxybenzylidene)-3-hydroxy-2-naphthohydrazide] | 14 ± 0.6 | 8.6 ± 0.4 | 23 ± 1.7 | 21 ± 1.9 | 12 ± 1.3 | 14 ± 0.3 | 12 ± 1.7 | 3.6 ± 0.1 | 6.7 ± 0.4 |  | 34.7 ± 5.1 | 277 | 235 | 57.8 | 650 | 532 | 22.2 ± 6 | did not exhibit generalized cytotoxicity | 184 | much less effect | 
